How the values were obtained:
S. aureus DSM 20231 [1] = experiment: Bliss interaction score (quartile over a dose matrix) (fitness difference); higher = more antagonism (negative = synergy)
Outline: (§1)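 The Bliss score is observed minus expected fitness, where expected fitness is the product of the single-drug fitness values inferred from the combination data. Fitness is the OD595 at the onset of stationary phase over the plate's robust no-drug mean, capped at 1. Scores are summarised by quartiles over technical, biological and donor/recipient replicates.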

S. aureus Newman [2] = experiment: as above
Outline: as §1

B. subtilis 168 = experiment: as above
Outline: as §1

S. pneumoniae D39V [3] = experiment: as above
Outline: as §1

S. aureus DSM 20231 [4] = experiment: fitness (endpoint OD595 vs no drug) (fraction); higher = more growth
Outline: (§2)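 Fitness compares growth at the stationary-phase transition with the robust mean of no-drug control wells, as a ratio of optical densities. The ratio is capped at 1. Wells of 384-well plates held 30 µl, or 55 µl for S. pneumoniae, inoculated at OD595 0.01. Readings at OD595 every 30 min for 14 h at 37 °C were corrected against the first reading.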

S. aureus Newman [5] = experiment: as above
Outline: as §2

S. pneumoniae D39V [6] = experiment: as above
Outline: as §2

[7] = first compound 0.125 µg/mL, partner 0.781 µg/mL
[8] = first compound 0.125 µg/mL, partner 1.562 µg/mL
[9] = first compound 0.125 µg/mL, partner 3.124 µg/mL
[10] = first compound 0.25 µg/mL, partner 0.781 µg/mL
[11] = first compound 0.25 µg/mL, partner 1.562 µg/mL
[12] = first compound 0.25 µg/mL, partner 3.124 µg/mL
[13] = first compound 0.5 µg/mL, partner 0.781 µg/mL
[14] = first compound 0.5 µg/mL, partner 1.562 µg/mL
[15] = first compound 0.5 µg/mL, partner 3.124 µg/mL
[16] = first compound 0.125 µg/mL, partner 1.25 µg/mL
[17] = first compound 0.125 µg/mL, partner 2.5 µg/mL
[18] = first compound 0.125 µg/mL, partner 5 µg/mL
[19] = first compound 0.25 µg/mL, partner 1.25 µg/mL
[20] = first compound 0.25 µg/mL, partner 2.5 µg/mL
[21] = first compound 0.25 µg/mL, partner 5 µg/mL
[22] = first compound 0.5 µg/mL, partner 2.5 µg/mL
[23] = first compound 0.5 µg/mL, partner 5 µg/mL
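Throughout, for Bliss interaction score (quartile over a dose matrix): first quartile when negative (synergy) and third quartile when positive (antagonism).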
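Throughout, for fitness (endpoint OD595 vs no drug): OD595 on entry to stationary phase over no-drug wells; at most 1.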

Compound: CO/N=C(\C(=O)N[C@@H]1C(=O)N2C(C(=O)[O-])=C(C[N+]3(C)CCCC3)CS[C@H]12)c1csc(N)n1 [Cefepime] + C[C@@H]1O[C@@H]1P(=O)(O)O [Fosfomycin]
- Bliss interaction score (S. aureus DSM 20231 [1]): -0.0913
- Bliss interaction score (S. aureus Newman [2]): 0.16
- Bliss interaction score (B. subtilis 168): -0.0571
- Bliss interaction score (S. pneumoniae D39V [3]): -0.0837
- fitness (S. aureus DSM 20231 [4]; [7]): 0.649
- fitness (S. aureus DSM 20231 [4]; [8]): 0.503
- fitness (S. aureus DSM 20231 [4]; [9]): 0.456
- fitness (S. aureus DSM 20231 [4]; [10]): 0.633
- fitness (S. aureus DSM 20231 [4]; [11]): 0.512
- fitness (S. aureus DSM 20231 [4]; [12]): 0.488
- fitness (S. aureus DSM 20231 [4]; [13]): 0.67
- fitness (S. aureus DSM 20231 [4]; [14]): 0.559
- fitness (S. aureus DSM 20231 [4]; [15]): 0.539
- fitness (S. aureus Newman [5]; [7]): 0.691
- fitness (S. aureus Newman [5]; [8]): 0.599
- fitness (S. aureus Newman [5]; [9]): 0.301
- fitness (S. aureus Newman [5]; [10]): 0.653
- fitness (S. aureus Newman [5]; [11]): 0.587
- fitness (S. aureus Newman [5]; [12]): 0.305
- fitness (S. aureus Newman [5]; [13]): 0.659
- fitness (S. aureus Newman [5]; [14]): 0.568
- fitness (S. aureus Newman [5]; [15]): 0.276
- fitness (S. pneumoniae D39V [6]; first compound 0.007 µg/mL, partner 1.25 µg/mL): 0.966
- fitness (S. pneumoniae D39V [6]; first compound 0.007 µg/mL, partner 2.5 µg/mL): 0.911
- fitness (S. pneumoniae D39V [6]; first compound 0.007 µg/mL, partner 5 µg/mL): 0.677
- fitness (S. pneumoniae D39V [6]; first compound 0.0078 µg/mL, partner 1.25 µg/mL): 0.987
- fitness (S. pneumoniae D39V [6]; first compound 0.0078 µg/mL, partner 2.5 µg/mL): 0.957
- fitness (S. pneumoniae D39V [6]; first compound 0.0078 µg/mL, partner 5 µg/mL): 0.755
- fitness (S. pneumoniae D39V [6]; first compound 0.014 µg/mL, partner 1.25 µg/mL): 0.984
- fitness (S. pneumoniae D39V [6]; first compound 0.014 µg/mL, partner 2.5 µg/mL): 0.889
- fitness (S. pneumoniae D39V [6]; first compound 0.014 µg/mL, partner 5 µg/mL): 0.62
- fitness (S. pneumoniae D39V [6]; first compound 0.0155 µg/mL, partner 1.25 µg/mL): 0.962
- fitness (S. pneumoniae D39V [6]; first compound 0.0155 µg/mL, partner 2.5 µg/mL): 0.932
- fitness (S. pneumoniae D39V [6]; first compound 0.0155 µg/mL, partner 5 µg/mL): 0.633
- fitness (S. pneumoniae D39V [6]; first compound 0.028 µg/mL, partner 1.25 µg/mL): 0.844
- fitness (S. pneumoniae D39V [6]; first compound 0.028 µg/mL, partner 2.5 µg/mL): 0.707
- fitness (S. pneumoniae D39V [6]; first compound 0.028 µg/mL, partner 5 µg/mL): 0.273
- fitness (S. pneumoniae D39V [6]; first compound 0.031 µg/mL, partner 1.25 µg/mL): 0.789

Compound: CO/N=C(\C(=O)N[C@@H]1C(=O)N2C(C(=O)[O-])=C(C[N+]3(C)CCCC3)CS[C@H]12)c1csc(N)n1 [Cefepime] + C[n+]1ccc(-c2cc[n+](C)cc2)cc1 [Paraquat]
- Bliss interaction score (S. aureus DSM 20231 [1]): -0.0615
- Bliss interaction score (S. aureus Newman [2]): 0.0489
- Bliss interaction score (B. subtilis 168): -0.121
- Bliss interaction score (S. pneumoniae D39V [3]): 0.0315
- fitness (S. aureus DSM 20231 [4]; [16]): 0.9
- fitness (S. aureus DSM 20231 [4]; [17]): 0.888
- fitness (S. aureus DSM 20231 [4]; [18]): 0.874
- fitness (S. aureus DSM 20231 [4]; [19]): 0.889
- fitness (S. aureus DSM 20231 [4]; [20]): 0.876
- fitness (S. aureus DSM 20231 [4]; [21]): 0.821
- fitness (S. aureus DSM 20231 [4]; [22]): 0.853
- fitness (S. aureus DSM 20231 [4]; [23]): 0.837
- fitness (S. aureus Newman [5]; [16]): 0.901
- fitness (S. aureus Newman [5]; [17]): 0.916
- fitness (S. aureus Newman [5]; [18]): 0.898
- fitness (S. aureus Newman [5]; [19]): 0.851
- fitness (S. aureus Newman [5]; [20]): 0.854
- fitness (S. aureus Newman [5]; [21]): 0.846
- fitness (S. aureus Newman [5]; first compound 0.5 µg/mL, partner 1.25 µg/mL): 0.768
- fitness (S. aureus Newman [5]; [22]): 0.773
- fitness (S. aureus Newman [5]; [23]): 0.839
- fitness (S. pneumoniae D39V [6]; first compound 0.007 µg/mL, partner 1.5 µg/mL): 0.99
- fitness (S. pneumoniae D39V [6]; first compound 0.007 µg/mL, partner 3 µg/mL): 0.996
- fitness (S. pneumoniae D39V [6]; first compound 0.007 µg/mL, partner 6 µg/mL): 0.971
- fitness (S. pneumoniae D39V [6]; first compound 0.0078 µg/mL, partner 1.5 µg/mL, one replicate): 0.994
- fitness (S. pneumoniae D39V [6]; first compound 0.0078 µg/mL, partner 3 µg/mL, one replicate): ≥ 1
- fitness (S. pneumoniae D39V [6]; first compound 0.0078 µg/mL, partner 6 µg/mL, one replicate): ≥ 1
- fitness (S. pneumoniae D39V [6]; first compound 0.014 µg/mL, partner 1.5 µg/mL): ≥ 1
- fitness (S. pneumoniae D39V [6]; first compound 0.014 µg/mL, partner 3 µg/mL): ≥ 1
- fitness (S. pneumoniae D39V [6]; first compound 0.014 µg/mL, partner 6 µg/mL): ≥ 1
- fitness (S. pneumoniae D39V [6]; first compound 0.0155 µg/mL, partner 1.5 µg/mL, one replicate): 0.985
- fitness (S. pneumoniae D39V [6]; first compound 0.0155 µg/mL, partner 3 µg/mL, one replicate): ≥ 1
- fitness (S. pneumoniae D39V [6]; first compound 0.0155 µg/mL, partner 6 µg/mL, one replicate): ≥ 1
- fitness (S. pneumoniae D39V [6]; first compound 0.028 µg/mL, partner 1.5 µg/mL): 0.934
- fitness (S. pneumoniae D39V [6]; first compound 0.028 µg/mL, partner 3 µg/mL): 0.917
- fitness (S. pneumoniae D39V [6]; first compound 0.028 µg/mL, partner 6 µg/mL): 0.869
- fitness (S. pneumoniae D39V [6]; first compound 0.031 µg/mL, partner 1.5 µg/mL, one replicate): 0.957
- fitness (S. pneumoniae D39V [6]; first compound 0.031 µg/mL, partner 3 µg/mL, one replicate): 0.975
- fitness (S. pneumoniae D39V [6]; first compound 0.031 µg/mL, partner 6 µg/mL, one replicate): ≥ 1

From the supplement of paper PMC10627819
